Where two headings read alike, the source gives them in different places.
What was measured:
[1] = system: Nrf2; conditions: COPD alveolar macrophages, 5 μM for 16 h
Procedure: For inducing corticosteroid resistance, PMs were exposed to cigarette smoke condensate (CSC, 100 μg/ml; Murty Pharmaceuticals, Lexington, Ky.) for 16 h. Exposure to S-nitrosoglutathione (GSNO, 10 μM) was limited to 4 h. […] For assessing corticosteroid responsiveness, macrophages were incubated with dexamethasone (1 μM, Sigma) for 1 h followed by LPS (100 ng/ml, Sigma) for additional 4 h.
All immunoblots were performed by using protocols as described previously (Barnes, P. J., N Engl J Med 343, 269-280 (2000)). Rabbit anti-HDAC2 antibody from Santa Cruz Biotechnology (Santa Cruz, Calif.) was used at 1:500 dilutions. Rabbit anti-5-nitroso-cysteine antibody from Alpha diagnostics was used at 1:500 dilutions. Rabbit anti-nitro-tyrosine antibody from Cell Signaling Technology, was used at 1:250 dilution. Rabbit anti-ubiquitin antibody from Santa Cruz Biotechnology (Santa Cruz, Calif.) was used at 1:1000 dilutions. Rabbit anti-GR antibody from Santa Cruz Biotechnology (Santa Cruz, Calif.) was used at a dilution of 1:1000. Rabbit anti-MMP9 antibody from Sigma Aldrich was used at 1:500 dilutions. Rabbit anti-acetyl-lysine antibody from Abcam was used at 1:750 dilutions. Rabbit anti-lamin-B1 from Santa Cruz Biotechnology (Santa Cruz, Calif.) was used at 1:1000 dilutions as a loading control. The Image J program was used for densitometry analyses.
Total RNA was extracted from the cells by lysis and specific binding to a silica membrance (Qiagen RNeasy kit, Qiagen, Valencia, Calif.), and qRT-PCR was performed by using primers and probe sets for human IL-8, NQO1, GCLM, and iNOS (Assay-on-Demand, Applied Biosystems, Foster City, Calif.). A real-time fluorescent PCR system (ABI 7000 Taqman system, Applied Biosystems) was used to perform these assays. β-actin was used as the normalization control.

[2] = system: MARCO
Procedure: (§1) Human alveolar macrophages were purified from individual BAL samples by centrifugation and seeded onto 6-well tissue culture plates. After incubation for 2 h, non-adherent cells were removed and the adherent cells were incubated with R, S-sulforaphane (5 μM; LKT Laboratories, Inc., St. Paul, Minn.) and or DMSO in RPMI 1640 culture medium with 10% FBS and 1% penicillin-streptomycin (Invitrogen, Carlsbad, Calif.). After 16-20 h, adherent cells were scraped, suspended in RPMI 1640 culture media and plated onto 96-well tissue culture plates for bacterial phagocytosis and clearance assays. […] For MARCO antibody-depletion, alveolar macrophages were incubated with human anti-MARCO antibody (1 μg/ml; (Hycult, Uden, The Netherlands) for 4 hours prior to bacterial challenge.
(§2) GAPDH was used for normalization.

[3] = system: Nrf2; conditions: COPD alveolar macrophages
Procedure: as §1, §2

[4] = system: Pseudomonas aeruginosa; conditions: alveolar macrophages from mice exposed to CS, ex vivo
Procedure: After treatment, macrophages (10^5 cells) were incubated with bacteria (PA or NTHI) for 4 h. Subsequently, 100 μL of cell free culture medium was aseptically plated and cultured on tryptose blood and or chocolate agar plates at 37° C. The number of bacterial colonies was counted after 24 h.
Bacterial phagocytosis was quantified using a flow cytometry analysis.
(§3) C57BL/6J mice were housed under controlled conditions for temperature and humidity, using a 12-hour light/dark cycle. At 8 weeks of age, mice were exposed to CS for (2.5 h/day for 5 days/week) for 1 week or 6 months using a machine that produces cigarette smoke (TE-10, Teague Enterprises) and reference cigarettes (2R4F) with a total suspended particle concentration of 250 mg/m^3 as previously described (T. E. Sussan et al., Proc Natl Acad Sci USA, (Dec. 22, 2008)). Following exposure to CS, mice were inoculated with PA or NTHI at a dose of 10^3 CFU in 50 μl of PBS intranasally. For sulforaphane administration (0.5 mg/mouse of R, S-sulforaphane in PBS), a nebulizer (Aerogen, Inc., Galway, Ireland) designed specifically for small animals was used.

[5] = system: secretory leukocyte protease inhibitor (SLPI); conditions: alveolar macrophages of patients with COPD, treated with or without sulforaphane
Procedure: as §1

[6] = system: elastase; conditions: alveolar macrophages treated with or without sulforaphane
[7] = system: Pseudomonas aeruginosa; conditions: 0.5 mg/mouse/day nebulizer, three days, 4 hours after PA, compared to vehicle
Procedure: The efficacy of sulforaphane to improve bacterial phagocytosis and clearance in the lungs of mice exposed to cigarette smoke was determined. After 6 months or 1 week of CS or air exposure, mice were treated with sulforaphane and or vehicle (0.5 mg/mouse/day) for three consecutive days using an Aeroneb® nebulizer (Aerogen, Inc., Galway, Ireland). Mice were challenged intranasally with Pseudomonas aeruginosa 24 hours after the last dose of sulforaphane, and bacterial burden in BALF was analyzed 4 hours later.
as §3, with “For sulforaphane administration (0.5 mg/mouse of R, S-sulforaphane in PBS), a nebulizer (Aerogen, Inc., Galway, Ireland) designed specifically for small animals was used.” left out
BAL fluid analysis and cell counts with differential staining were carried out as described previously (T. Rangasamy et al., J Clin Invest 114, 1248 (November, 2004)). […] After 24 h, the number of CFU was counted.

`C[S+]([O-])CCCCN=C=S` (stereo not drawn) [sulforaphane] was tested, and the “GSH biosynthesizing enzymes (GCLC, GCLM)” value [1] was “significantly elevated”, the “Nrf2-regulated antioxidant genes (NQO1, HO-1)” value [1] was “significantly elevated” and the “Nrf2 nuclear protein levels” value [1] was “significantly elevated”. The “surface expression of MARCO protein” value ([2]; COPD alveolar macrophages, flow cytometry, compared to vehicle, p<0.001) was 2- to 5 fold, the “expression of MARCO mRNA” value ([2]; alveolar macrophages transfected with Nrf2-siRNA, compared to control ssRNA) was “failed to upregulate the expression of MARCO mRNA” and the “Nrf2-regulated target genes (NQO1 & GPX2) mRNA” value [3] was “upregulation of Nrf2-regulated targets genes”. The Nrf2 protein levels ([3]; flow cytometry, vs vehicle) was “elevated levels of Nrf2 protein”, the “bacterial phagocytic ability and clearance” value [4] was “increased bacterial phagocytic ability and clearance” and the “SLPI levels in cell free media” value [5] was “greater levels of SLPI”. The “elastase activity in cell free media” value [6] was “inhibition of elastase activity”, the “bacterial burden in lungs” value ([7]; 1 week CS) was “significantly reduced bacterial burden” and the “bacterial burden in lungs” value ([7]; 6 months CS) was “significantly reduced bacterial burden”.

Source: patent US20130039928A1, “COMPOSITIONS AND METHODS FOR REVERSING CORTICOSTEROID RESISTANCE OR TREATING RESPIRATORY INFECTIONS” (priority 2010, published 2013)
